Data published in patent US20240269088A1, “PAIN RELIEF PATCH” (CS MEDICA A/S, priority 2021, published 2024).

Test system: pain
Assay: Comparison of skin patches formulated with type A versus type B crystalline CBD
Format: in vivo
Description: The “potency” and/or “activity” of “type A” CBD can e.g. be determined by comparing the effect using essentially identical compositions with the exception of the type and/or quantity of CBD used. Said potency, activity and or effect can e.g. be determined essentially as disclosed in the Examples by replacing the placebo with the “B-type” CBD comprising formulation. Alternatively, the potency can be determined in the quantity of CBD needed to provide the same effect, such as pain relief.
Two different sets of skin patches are provided according to Example 1, e.g. formulation A or F, the only difference being that the crystalline CBD used in the formulation is either of type A (needle-like crystals; FIG. 9) or type B (bunch/cluster-like; FIG. 10).
Type A crystalline CBD is sourced from Enecta, while type B CBD is sourced from Pharma Hemp.
Such tests can e.g. be performed, mutatis mutandis, according to Examples 1-4.

For `C=C(C)[C@@H]1CCC(C)=C[C@H]1c1c(O)cc(CCCCC)cc1O` [type A CBD, Cannabidiol], the “Potency of CBD with needle-like crystal structure compared with CBD of crystal structure B” value (observed by the inventors, see Example 6) was “significantly more potent” and the “Activity of skin patch with type A CBD compared with comparable skin patch with type B CBD” value (skin patches according to Example 1, e.g. formulation A or F, only the crystalline CBD differs) was “significantly more active”.
